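Compound exposure: 48 hours, 5 concentrations, 96-well plates. TGI: total growth inhibition.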
test system: XF 498 CNS; test: NCI anticancer screen, dose series, 48 h

Row | SMILES | TGI [µM]
1 | COc1cc2c(cc1O)[C@H](C)C(c1ccc(OC)c(OC)c1)O2 (some centres undefined) | 21.8
2 | COc1ccc(C2Oc3cc(OC)c(OC)cc3C2CCl)cc1OC (centres undefined) | > 100
3 | O=c1cc(-c2ccc3c(c2)OCO3)[nH]c2cc3c(cc12)OCO3 | > 100
4 | O=C1C(Br)=C(Br)C(=O)c2ccc(=O)ccc21 | 43.2

Source: PubChem BioAssay (NCI)
